Data set [1] concerns sodium channel. The experiment in a line: Guanidine Influx Assay (In Vitro Assay). The class given is cell-based, human or rat. To be noted: known cell line that expresses a sodium channel; read-out: IC50 Activity Level. The source says: This example describes an in vitro assay for testing and profiling test agents against human or rat sodium channels stably expressed in cells of either an endogenous or recombinant origin. The assay is also useful for determining the IC-50 of a sodium channel blocking compound. The assay is based on the guanidine flux assay described by Reddy, N. L., et al., J. Med. Chem. (1998), 41(17):3298-302.
The guanidine influx assay is a radiotracer flux assay used to determine ion flux activity of sodium channels in a high-throughput microplate-based format. The assay uses ^14C-guanidine hydrochloride in combination with various known sodium channel modulators, to assay the potency of test agents. Potency is determined by an IC-50 calculation. Selectivity is determined by comparing potency of the compound for the channel of interest to its potency against other sodium channels (also called ‘selectivity profiling’).
Each of the test agents is assayed against cells that express the channels of interest. Voltage gated sodium channels are either TTX sensitive or insensitive. This property is useful when evaluating the activities of a channel of interest when it resides in a mixed population with other sodium channels. The following Table 1 summarizes cell lines useful in screening for a certain channel activity in the presence or absence of TTX.
Cells expressing the channel of interest are grown according to the supplier or in the case of a recombinant cell in the presence of selective growth media such as G418 (Gibco/Invitrogen). The cells are disassociated from the culture dishes with an enzymatic solution (1×) Trypsin/EDTA (Gibco/Invitrogen) and analyzed for density and viability using haemocytometer (Neubauer). Disassociated cells are washed and resuspended in their culture media then plated into Scintiplates (Beckman Coulter Inc.) (approximately 100,000 cells/well) and incubated at 37° C./5% CO2. for 20-24 hours. After an extensive wash with Low sodium HEPES-buffered saline solution (LNHBSS) (150 mM Choline Chloride, […] (Sigma), 1 mM Calcium Chloride, 5 mM Potassium Chloride, 1 mM Magnesium Chloride, 10 mM Glucose) agents diluted with LNHBSS are added to each well. (Varying concentrations of test agent may be used). The activation/radiolabel mixture contains aconitine (Sigma), and ^14C-guanidine hydrochloride (ARC).
After loading the cells with test agent and activation/radiolabel mixture, the Scintiplates are incubated at ambient temperature. Following the incubation, the Scintplates are extensively washed with LNHBSS supplemented with guanidine (Sigma). The Scintiplates are dried and then counted using a Wallac MicroBeta TriLux (Perkin-Elmer Life Sciences). The ability of the test agent to block sodium channel activity is determined by comparing the amount of ^14C-guanidine present inside the cells expressing the different sodium channels.
IC-50 value of a test agent for a specific sodium channel may be determined using the above general method. IC-50 may be determined using a 3,8,10,12 or 16 point curve in duplicate or triplicate with a starting concentration of 1, 5 or 10 μM diluted serially with a final concentration reaching the sub-nanomolar, nanomolar and low micromolar ranges. Typically the mid-point concentration of test agent is set at 1 μM, and sequential concentrations of half dilutions greater or smaller are applied (e.g. 0.5 μM; […] and 0.25 μM; 10 μM and 0.125 μM; 20 μM etc.). The IC-50 curve is calculated using the 4 Parameter Logistic Model or Sigmoidal Dose-Response Model formula (fit=(A+((B−A)/(1+((C/x)̂D)))).

Data set [2] has as its system SK-N-BE2C. The class given is cell-based, human.
Data set [3] has as its system PC12 (rat pheochromocytoma). The class given is cell-based.
For data set [4], the system named is CHO-K1. In kind it is cell-based, Chinese Hamster.
The subject of data set [5] is L6 (rat myoblast cell). The class given is cell-based.

pIC50: −log10 of the molar value. Where a name gives a salt, the structure may show the parent alone. Bounds are passed on as bounds.

`CC(C)c1nc2ccccn2c(=O)c1-c1ccc(N[C@@H]2CCN(C(=O)OC(C)(C)C)C2)cc1` (stereo in doubt) [Example 3.6, tert-butyl 3-({4-[2-(1-methylethyl)-4-oxo-4H-pyrido[1,2-a]pyrimidin-3-yl]phenyl}amino)pyrrolidine-1-carboxylate] registered a melting point of 232 to 236 °C. Also, in data set [1], the pIC50 is at most 5.00.
For `CC(C)c1nc2ccccn2c(=O)c1-c1ccc(Cl)cc1` [Example 1.5, 3-(4-chlorophenyl)-2-(1-methylethyl)-4H-pyrido[1,2-a]pyrimidin-4-one], in that order: 98 to 100 °C and at most 5.00.
As to `CCCCc1nc2ccccn2c(=O)c1-c1ccc(N)cc1` [Example 1.14, 2-butyl-3-(4-aminophenyl)-4H-pyrido[1,2-a]pyrimidin-4-one], the melting point lay within 95 to 97 °C. Further, the negative-log IC50 (pIC50) in data set [1] is 6.00 to 7.00.
Compound `CCCCc1nc2ccccn2c(=O)c1-c1ccc(NC(=O)OC(C)(C)C)cc1` [Example 1.15, tert-butyl 4-(2-butyl-4-oxo-4H-pyrido[1,2-a]pyrimidin-3-yl)phenylcarbamate] gave a melting point of 132 to 135 °C. Besides, the pIC50 in data set [1] was at most 5.00.
`COc1nc2ccccn2c(=O)c1-c1ccc(Cl)cc1` [Example 1.24, 3-(4-chlorophenyl)-2-methoxy-4H-pyrido[1,2-a]pyrimidin-4-one] registered a melting point of 149 to 151 °C. Further, the negative-log IC50 (pIC50) in data set [1] is at most 5.00.
In turn, `CCCCc1nc2ccccn2c(=O)c1-c1ccc(N[C@@H]2CCN(C(=O)OC(C)(C)C)C2)cc1C` [Example 3.10, (R)-tert-butyl 3-{[4-(2-butyl-4-oxo-4H-pyrido[1,2-a]pyrimidin-3-yl)-3-methylphenyl]amino}pyrrolidine-1-carboxylate] returned a melting point of 162 to 168 °C. Also, the pIC50 in data set [1] is at most 5.00.
Taken in the same sequence, the figures for `COc1nc2ccccn2c(=O)c1-c1ccc(NC2CCN(C(=O)OC(C)(C)C)C2)cc1` (stereo not shown) [Example 3.19, tert-butyl 3-{[4-(2-methoxy-4-oxo-4H-pyrido[1,2-a]pyrimidin-3-yl)phenyl]amino}pyrrolidine-1-carboxylate] were 102 to 104 °C and at most 5.00.
Regarding `CCCNc1nc2ccccn2c(=O)c1-c1ccc(NC2CCN(C(=O)OC(C)(C)C)C2)cc1` (stereo not shown) [Example 3.21, tert-butyl 3-({4-[4-oxo-2-(propylamino)-4H-pyrido[1,2-a]pyrimidin-3-yl]phenyl}amino)pyrrolidine-1-carboxylate], the melting point was in the range of 187 to 190 °C. Moreover, the pIC50 in data set [1] is at most 5.00.
In turn, `CC(C)Nc1nc2ccccn2c(=O)c1-c1ccc(NC2CCN(C(=O)OC(C)(C)C)C2)cc1` (stereo not shown) [Example 3.22, tert-butyl 3-[(4-{2-[(1-methylethyl)amino]-4-oxo-4H-pyrido[1,2-a]pyrimidin-3-yl}phenyl)amino]pyrrolidine-1-carboxylate] displayed a melting point of 210 to 212 °C. Further, in data set [1], the pIC50 was at most 5.00.
The compound `CCCCc1nc2ccccn2c(=O)c1-c1ccc(NC(=O)[C@@H]2CCCN2C(=O)OC(C)(C)C)cc1` [Example 5, (S)-tert-butyl 2-{[4-(2-butyl-4-oxo-4H-pyrido[1,2-a]pyrimidin-3-yl)phenyl]carbamoyl}-pyrrolidine-1-carboxylate] yielded a melting point of 179 to 187 °C. Besides, the negative logarithm of the IC50 (pIC50) in data set [1] is at most 5.00.
In turn, `CCCCc1nc2ccccn2c(=O)c1-c1ccc(N[C@@H]2CCNC2)cc1.Cl` [Example 8, (R)-2-butyl-3-(4-(pyrrolidin-3-ylamino)phenyl)-4H-pyrido[1,2-a]pyrimidin-4-one hydrochloride] yielded a melting point of 171 to 174 °C. The negative-log IC50 (pIC50) in data set [1] was 5.00 to 6.00.
As for `CCCOc1nc2ccccn2c(=O)c1-c1ccc(N[C@@H]2CCNC2)cc1` [Example 9.1, (R)-2-propoxy-3-(4-(pyrrolidin-3-ylamino)phenyl)-4H-pyrido[1,2-a]pyrimidin-4-one trifluoroacetate], the pIC50 in data set [1] was at most 5.00.
Take `CCCCc1nc2ccccn2c(=O)c1-c1ccc(O)cc1` [Example 11, 2-butyl-3-(4-hydroxyphenyl)-4H-pyrido[1,2-a]pyrimidin-4-one]: the melting point is 160 °C (dec.). In data set [1], the negative logarithm of the IC50 (pIC50) was at most 5.00.
As to `CCCCc1nc2ccccn2c(=O)c1-c1ccc(OS(=O)(=O)C(F)(F)F)cc1` [Example 12, 4-(2-butyl-4-oxo-4H-pyrido[1,2-a]pyrimidin-3-yl)phenyl trifluoromethanesulfonate], the pIC50 in data set [1] is at most 5.00.
For the compound `CCCCc1nc2ccc(Cl)cn2c(=O)c1-c1ccc(O)cc1` [Example 13, 2-butyl-7-chloro-3-(4-hydroxyphenyl)-4H-pyrido[1,2-a]pyrimidin-4-one], the negative-log IC50 (pIC50) in data set [1] is at most 5.00.
Turning to `CCCCc1nc2ccccn2c(=O)c1-c1ccc(O[C@@H]2CCNC2)cc1` [Example 15, (R)-2-butyl-3-{4-[pyrrolidin-3-yloxy]phenyl}-4H-pyrido[1,2-a]pyrimidin-4-one hydrochloride], the negative logarithm of the IC50 (pIC50) in data set [1] was at most 5.00.
On to `CCCCc1nc2ccccn2c(=O)c1-c1ccc(NC(=O)[C@@H]2CCCN2)cc1.Cl` [Example 18, (S)—N-[4-(2-butyl-4-oxo-4H-pyrido[1,2-a]pyrimidin-3-yl)phenyl]prolinamide hydrochloride], for which the melting point lay in the range of 179 to 187 °C. For the same compound, the pIC50 in data set [1] is at most 5.00.
Consider `NC1=N[C@H](O)[C@H]2[C@H]3O[C@]4(O)O[C@@H]([C@@H](O)[C@@]2(N1)[C@@H]4O)[C@]3(O)CO` [TTX, tetrodotoxin], for which the “block of [14C] Guanidine influx” value is “TTX partially blocked influx” in data set [2], “Guanidine influx was completely” in data set [3], “Guanidine influx was completely” in data set [4] and “partially blocked by TTX (Nav1.5” in data set [5].

The record behind these values is patent US20080194616A1, “PYRIDOPYRIMIDINONE COMPOUNDS USEFUL IN TREATING SODIUM CHANNEL-MEDIATED DISEASES OR CONDITIONS” (Xenon Pharmaceuticals Inc., priority 2007, published 2008).
